Test results from the NIST ThermoML archive (doi:10.1021/je0501843).
Where “and” joins values, the source holds several entries; their conditions need not be identical. Equal values may be shown once. ± gives the expanded uncertainty stated by the source.

Assay: molar heat capacity at constant volume; wn = mass fraction of the nth substance listed
Conditions: Fluid (supercritical or subcritical phases), Vacuum adiabatic calorimetry, w1 = 0.5001

FC(F)C(F)(F)F [pentafluoroethane] + FCF
Conditions	molar heat capacity at constant volume
301 K, 4414 kPa	70.23 ± 1.4 J/K/mol
302 K, 4977 kPa	70.17 ± 1.4 J/K/mol
303 K, 5537 kPa	70.3 ± 1.4 J/K/mol
303 K, 5540 kPa	70.03 ± 1.4 J/K/mol
304 K, 6101 kPa	69.82 ± 1.4 J/K/mol
304 K, 6103 kPa	69.96 ± 1.4 J/K/mol
305 K, 6663 kPa	69.83 ± 1.4 J/K/mol and 69.76 ± 1.4 J/K/mol
306 K, 7227 kPa	69.97 ± 1.4 J/K/mol
306 K, 7228 kPa	70.45 ± 1.4 J/K/mol
307 K, 7791 kPa	70.07 ± 1.4 J/K/mol
307 K, 7792 kPa	70.29 ± 1.4 J/K/mol
308 K, 8356 kPa	69.75 ± 1.4 J/K/mol
308 K, 8357 kPa	69.97 ± 1.4 J/K/mol
309 K, 8918 kPa	70.23 ± 1.4 J/K/mol and 69.75 ± 1.4 J/K/mol
310 K, 9482 kPa	70.03 ± 1.4 J/K/mol
310 K, 9484 kPa	69.9 ± 1.4 J/K/mol
311 K, 10048 kPa	70.12 ± 1.4 J/K/mol
311 K, 10049 kPa	69.86 ± 1.4 J/K/mol
312 K, 10614 kPa	69.67 ± 1.4 J/K/mol
312 K, 10615 kPa	69.66 ± 1.4 J/K/mol
313 K, 11178 kPa	69.33 ± 1.4 J/K/mol
313 K, 11179 kPa	69.43 ± 1.4 J/K/mol
314 K, 11741 kPa	69.02 ± 1.4 J/K/mol
314 K, 11743 kPa	69.3 ± 1.4 J/K/mol
315 K, 12309 kPa	69.15 ± 1.4 J/K/mol and 68.67 ± 1.4 J/K/mol
316 K, 12875 kPa	69.06 ± 1.4 J/K/mol
316 K, 12877 kPa	68.75 ± 1.4 J/K/mol
317 K, 13440 kPa	68.83 ± 1.4 J/K/mol and 68.21 ± 1.4 J/K/mol
318 K, 14003 kPa	67.4 ± 1.4 J/K/mol
318 K, 14005 kPa	68 ± 1.4 J/K/mol
319 K, 14570 kPa	67.78 ± 1.4 J/K/mol
319 K, 14571 kPa	68.05 ± 1.4 J/K/mol
320 K, 15135 kPa	67.81 ± 1.4 J/K/mol
320 K, 15137 kPa	68.49 ± 1.4 J/K/mol
321 K, 15700 kPa	67.05 ± 1.4 J/K/mol
321 K, 15701 kPa	67.37 ± 1.4 J/K/mol
322 K, 16263 kPa	66.48 ± 1.3 J/K/mol
322 K, 16265 kPa	66.83 ± 1.4 J/K/mol
323 K, 16830 kPa	66.97 ± 1.4 J/K/mol and 66.81 ± 1.4 J/K/mol
324 K, 17394 kPa	66.92 ± 1.4 J/K/mol
324 K, 17396 kPa	66.39 ± 1.3 J/K/mol
325 K, 5448 kPa	69.93 ± 1.4 J/K/mol
325 K, 17959 kPa	66.13 ± 1.3 J/K/mol
325 K, 17961 kPa	66.31 ± 1.3 J/K/mol
326 K, 5835 kPa	69.81 ± 1.4 J/K/mol
326 K, 5836 kPa	71.48 ± 1.4 J/K/mol
326 K, 18524 kPa	65.89 ± 1.3 J/K/mol
326 K, 18525 kPa	66.07 ± 1.3 J/K/mol
327 K, 6224 kPa	70.12 ± 1.4 J/K/mol
327 K, 6225 kPa	69.92 ± 1.4 J/K/mol
327 K, 19088 kPa	66.16 ± 1.3 J/K/mol
327 K, 19090 kPa	66.42 ± 1.3 J/K/mol
328 K, 6615 kPa	70.49 ± 1.4 J/K/mol
328 K, 6616 kPa	71.47 ± 1.4 J/K/mol
328 K, 19652 kPa	66.1 ± 1.3 J/K/mol
328 K, 19655 kPa	66.08 ± 1.3 J/K/mol
329 K, 7006 kPa	70.47 ± 1.4 J/K/mol
329 K, 7007 kPa	71.63 ± 1.4 J/K/mol
330 K, 7397 kPa	69.74 ± 1.4 J/K/mol
330 K, 7399 kPa	71.02 ± 1.4 J/K/mol
331 K, 7788 kPa	69.69 ± 1.4 J/K/mol
331 K, 7790 kPa	71.06 ± 1.4 J/K/mol
332 K, 8183 kPa	71.27 ± 1.4 J/K/mol
332 K, 8184 kPa	70.57 ± 1.4 J/K/mol
333 K, 8579 kPa	70.36 ± 1.4 J/K/mol and 71.51 ± 1.4 J/K/mol
334 K, 8970 kPa	71.08 ± 1.4 J/K/mol
334 K, 8971 kPa	69.51 ± 1.4 J/K/mol
335 K, 9364 kPa	69.28 ± 1.4 J/K/mol and 70.76 ± 1.4 J/K/mol
336 K, 9759 kPa	69.92 ± 1.4 J/K/mol and 70.89 ± 1.4 J/K/mol
337 K, 10156 kPa	71.33 ± 1.4 J/K/mol
337 K, 10157 kPa	70.6 ± 1.4 J/K/mol
338 K, 6179 kPa	73.09 ± 1.5 J/K/mol
338 K, 10552 kPa	71.08 ± 1.4 J/K/mol
338 K, 10553 kPa	69.86 ± 1.4 J/K/mol
339 K, 6478 kPa	73.25 ± 1.5 J/K/mol
339 K, 10948 kPa	68.64 ± 1.4 J/K/mol and 70.46 ± 1.4 J/K/mol
340 K, 6782 kPa	73.55 ± 1.5 J/K/mol
340 K, 11344 kPa	69.16 ± 1.4 J/K/mol
340 K, 11346 kPa	71.1 ± 1.4 J/K/mol
341 K, 7089 kPa	73.85 ± 1.5 J/K/mol
341 K, 11743 kPa	69.77 ± 1.4 J/K/mol
341 K, 11745 kPa	71.13 ± 1.4 J/K/mol
342 K, 7389 kPa	73.14 ± 1.5 J/K/mol
342 K, 12139 kPa	69.04 ± 1.4 J/K/mol
342 K, 12142 kPa	70.69 ± 1.4 J/K/mol
343 K, 7693 kPa	72.74 ± 1.5 J/K/mol
343 K, 12536 kPa	68.97 ± 1.4 J/K/mol
343 K, 12538 kPa	70.99 ± 1.4 J/K/mol
344 K, 7998 kPa	73.01 ± 1.5 J/K/mol
344 K, 12935 kPa	69.06 ± 1.4 J/K/mol
344 K, 12936 kPa	70.57 ± 1.4 J/K/mol
345 K, 8306 kPa	73.42 ± 1.5 J/K/mol
345 K, 13334 kPa	70.04 ± 1.4 J/K/mol
346 K, 8612 kPa	73.52 ± 1.5 J/K/mol
346 K, 13733 kPa	70.31 ± 1.4 J/K/mol
347 K, 6281 kPa	76.51 ± 1.5 J/K/mol
347 K, 8917 kPa	72.76 ± 1.5 J/K/mol
347 K, 14131 kPa	69.61 ± 1.4 J/K/mol
348 K, 6505 kPa	75.76 ± 1.5 J/K/mol
348 K, 9225 kPa	72.31 ± 1.5 J/K/mol
348 K, 14528 kPa	69.08 ± 1.4 J/K/mol
349 K, 5380 kPa	96.64 ± 1.9 J/K/mol
349 K, 6732 kPa	76.89 ± 1.6 J/K/mol
349 K, 9535 kPa	72.88 ± 1.5 J/K/mol
349 K, 14929 kPa	70.2 ± 1.4 J/K/mol
350 K, 5486 kPa	95.02 ± 1.9 J/K/mol
350 K, 5543 kPa	91.24 ± 1.8 J/K/mol
350 K, 5720 kPa	84.88 ± 1.7 J/K/mol
350 K, 6957 kPa	76.37 ± 1.5 J/K/mol
350 K, 9844 kPa	72.65 ± 1.5 J/K/mol
350 K, 15331 kPa	69.99 ± 1.4 J/K/mol
351 K, 5591 kPa	91.71 ± 1.8 J/K/mol
351 K, 5661 kPa	90.24 ± 1.8 J/K/mol
351 K, 5866 kPa	81.35 ± 1.7 J/K/mol
351 K, 7184 kPa	75.16 ± 1.5 J/K/mol
351 K, 10153 kPa	72.45 ± 1.5 J/K/mol
351 K, 15729 kPa	68.92 ± 1.4 J/K/mol
352 K, 5697 kPa	89.08 ± 1.8 J/K/mol
352 K, 5778 kPa	87.68 ± 1.8 J/K/mol
352 K, 5877 kPa	87.6 ± 1.8 J/K/mol
352 K, 6013 kPa	80.15 ± 1.6 J/K/mol
352 K, 7411 kPa	74.15 ± 1.5 J/K/mol
352 K, 10462 kPa	72.57 ± 1.5 J/K/mol
352 K, 16128 kPa	68.79 ± 1.4 J/K/mol
353 K, 5802 kPa	88.36 ± 1.8 J/K/mol
353 K, 5898 kPa	87.13 ± 1.8 J/K/mol
353 K, 6010 kPa	87.42 ± 1.8 J/K/mol
353 K, 6163 kPa	80.29 ± 1.6 J/K/mol
353 K, 7640 kPa	75.09 ± 1.5 J/K/mol
353 K, 10771 kPa	72.4 ± 1.5 J/K/mol
353 K, 16529 kPa	69.17 ± 1.4 J/K/mol
354 K, 5907 kPa	87.38 ± 1.8 J/K/mol
354 K, 6017 kPa	86.01 ± 1.7 J/K/mol
354 K, 6144 kPa	86.89 ± 1.7 J/K/mol
354 K, 6312 kPa	80.47 ± 1.6 J/K/mol
354 K, 7867 kPa	74.78 ± 1.5 J/K/mol
354 K, 11082 kPa	72.54 ± 1.5 J/K/mol
354 K, 16929 kPa	68.92 ± 1.4 J/K/mol
355 K, 6013 kPa	85.59 ± 1.7 J/K/mol
355 K, 6136 kPa	84.29 ± 1.7 J/K/mol
355 K, 6277 kPa	85.22 ± 1.7 J/K/mol
355 K, 6460 kPa	78.25 ± 1.6 J/K/mol
355 K, 8099 kPa	73.81 ± 1.5 J/K/mol
355 K, 11393 kPa	71.62 ± 1.4 J/K/mol
355 K, 17330 kPa	68.05 ± 1.4 J/K/mol
356 K, 6119 kPa	85.68 ± 1.7 J/K/mol
356 K, 6256 kPa	84 ± 1.7 J/K/mol
356 K, 6409 kPa	84.29 ± 1.7 J/K/mol
356 K, 6610 kPa	77.58 ± 1.6 J/K/mol
356 K, 8331 kPa	73.96 ± 1.5 J/K/mol
356 K, 11703 kPa	71.68 ± 1.4 J/K/mol
356 K, 17728 kPa	68.48 ± 1.4 J/K/mol
357 K, 6227 kPa	86.16 ± 1.7 J/K/mol
357 K, 6375 kPa	83.21 ± 1.7 J/K/mol
357 K, 6544 kPa	84.6 ± 1.7 J/K/mol
357 K, 6762 kPa	78.59 ± 1.6 J/K/mol
357 K, 8563 kPa	73.79 ± 1.5 J/K/mol
357 K, 12015 kPa	72.2 ± 1.5 J/K/mol
357 K, 18129 kPa	68.93 ± 1.4 J/K/mol
358 K, 6332 kPa	84.37 ± 1.7 J/K/mol
358 K, 6496 kPa	82.34 ± 1.7 J/K/mol
358 K, 6679 kPa	84.32 ± 1.7 J/K/mol
358 K, 6913 kPa	78.26 ± 1.6 J/K/mol
358 K, 8795 kPa	73.5 ± 1.5 J/K/mol
358 K, 12328 kPa	72.12 ± 1.5 J/K/mol
358 K, 18529 kPa	68.62 ± 1.4 J/K/mol
359 K, 6438 kPa	82.91 ± 1.7 J/K/mol
359 K, 6616 kPa	81.68 ± 1.6 J/K/mol
359 K, 6814 kPa	82.54 ± 1.7 J/K/mol
359 K, 7064 kPa	76.43 ± 1.5 J/K/mol
359 K, 9028 kPa	72.9 ± 1.5 J/K/mol
359 K, 12639 kPa	71.57 ± 1.4 J/K/mol
359 K, 18928 kPa	68.27 ± 1.4 J/K/mol
360 K, 6544 kPa	82.44 ± 1.7 J/K/mol
360 K, 6737 kPa	80.97 ± 1.6 J/K/mol
360 K, 6948 kPa	82 ± 1.7 J/K/mol
360 K, 7219 kPa	76.78 ± 1.6 J/K/mol
360 K, 9258 kPa	72.64 ± 1.5 J/K/mol
360 K, 12952 kPa	70.73 ± 1.4 J/K/mol
361 K, 6650 kPa	82.84 ± 1.7 J/K/mol
361 K, 6858 kPa	80.53 ± 1.6 J/K/mol
361 K, 7085 kPa	81.72 ± 1.6 J/K/mol
361 K, 7368 kPa	77.24 ± 1.6 J/K/mol
361 K, 9493 kPa	73.35 ± 1.5 J/K/mol
361 K, 13265 kPa	71.22 ± 1.4 J/K/mol
362 K, 6758 kPa	82.74 ± 1.7 J/K/mol
362 K, 6980 kPa	80.56 ± 1.6 J/K/mol
362 K, 7222 kPa	81.91 ± 1.6 J/K/mol
362 K, 7523 kPa	75.41 ± 1.5 J/K/mol
362 K, 9726 kPa	73.82 ± 1.5 J/K/mol
362 K, 13581 kPa	70.53 ± 1.4 J/K/mol
363 K, 6864 kPa	81.25 ± 1.6 J/K/mol
363 K, 7101 kPa	80.13 ± 1.6 J/K/mol
363 K, 7357 kPa	81.64 ± 1.6 J/K/mol
363 K, 7676 kPa	75.63 ± 1.5 J/K/mol
363 K, 9958 kPa	73.52 ± 1.5 J/K/mol
